Laboratory results taken from BindingDB's records for doi:10.1021/jm040129+ (The Johns Hopkins University, 2004).

Molecular target: T1, 1,25-dihydroxyvitamin D(3) 24-hydroxylase, mitochondrial (Homo sapiens, UniProt Q07973)
T1 sequence (Q07973 whole entry): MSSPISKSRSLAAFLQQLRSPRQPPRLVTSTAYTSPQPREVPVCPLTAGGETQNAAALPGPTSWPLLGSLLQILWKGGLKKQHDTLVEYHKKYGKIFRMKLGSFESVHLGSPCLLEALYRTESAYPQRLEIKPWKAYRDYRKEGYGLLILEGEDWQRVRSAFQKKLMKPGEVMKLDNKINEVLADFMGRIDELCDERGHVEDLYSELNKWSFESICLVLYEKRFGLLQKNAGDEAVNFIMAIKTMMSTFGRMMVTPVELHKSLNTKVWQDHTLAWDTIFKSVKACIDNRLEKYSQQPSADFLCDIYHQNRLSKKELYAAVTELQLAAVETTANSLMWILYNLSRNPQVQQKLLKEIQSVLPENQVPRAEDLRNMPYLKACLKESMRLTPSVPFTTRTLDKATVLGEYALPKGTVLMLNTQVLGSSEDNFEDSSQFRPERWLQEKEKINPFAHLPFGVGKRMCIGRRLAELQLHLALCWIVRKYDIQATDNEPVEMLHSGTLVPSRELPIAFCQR
Assay: Inhibition of human CYP24 hydroxylase expressed in V79 cells

IC50: > 1000 nM
Compound: C=C1/C(=C\C=C2/CCC[C@]3(C)[C@@H](C(C)=CC(F)=S(N)(=O)c4ccccc4)CC[C@@H]23)C[C@@H](O)C[C@@H]1O (stereo partly specified)
